Reference: patent US8097440B1, “Engineered microorganisms capable of producing target compounds under anaerobic conditions” (Gevo, Inc., priority 2008, dated 2012)

Molecular target: T1, E. coli KARI Ec_IlvC variant Ec_IlvC^6E6-his6 (A71S, R76D, S78D, Q110V), SEQ ID NO: 34 (Escherichia coli, UniProt P05793, A71S/Q110V/R76D/S78D)
T1 construct: T37 values cited for the gene on pGV1975
T1 sequence (P05793 with tags, fused parts or gaps A71S/R76D/S78D/Q110V): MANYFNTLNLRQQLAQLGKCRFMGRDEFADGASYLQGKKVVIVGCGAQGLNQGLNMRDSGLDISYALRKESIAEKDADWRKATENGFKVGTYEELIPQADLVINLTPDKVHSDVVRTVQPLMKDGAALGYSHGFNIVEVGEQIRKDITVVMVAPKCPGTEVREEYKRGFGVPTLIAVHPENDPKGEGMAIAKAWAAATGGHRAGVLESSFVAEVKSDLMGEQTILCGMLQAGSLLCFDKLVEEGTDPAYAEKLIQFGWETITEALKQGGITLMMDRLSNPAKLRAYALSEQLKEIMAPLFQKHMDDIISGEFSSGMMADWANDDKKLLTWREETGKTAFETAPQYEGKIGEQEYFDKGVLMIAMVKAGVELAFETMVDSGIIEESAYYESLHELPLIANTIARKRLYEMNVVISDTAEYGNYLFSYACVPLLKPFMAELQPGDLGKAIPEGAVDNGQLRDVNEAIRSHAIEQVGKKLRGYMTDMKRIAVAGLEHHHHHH
Experiment: KARI assay, purified Ec_IlvC^6E6-his6
Type: biochemical
Experimental: KARI cuvette assay: KARI activity was assayed kinetically by monitoring the decrease in NAD(P)H concentration by measuring the absorbance at 340 nm. A reaction buffer was prepared containing 250 mM potassium phosphate pH 7, 1 mM DTT and 10 mM MgCl2. Cell pellets were resuspended (0.25 g wet weight/mL buffer) in 250 mM potassium phosphate (KPi) buffer containing 1 mM DTT and 10 mM MgCl2. The resuspended cells were lysed by sonication for 1 min with a 50% duty cycle and pelleted at 11000×g and 4° C. for 15 min. A reaction mixture consisting of 910 μl reaction buffer, 50 μl acetolactate, and 20 μl lysate was prepared in a cuvette. […]
Only 20% of the enzymes of the recombination library were active on NADH. After screening 1,000 clones using the NADH depletion assay at 340 nm, 26 KARI variants were selected for a rescreen by the high-throughput assay described in Example 14 and eight thereof were expressed in 25 ml LBamp medium in shake flasks according to the protocol for cell growth and protein expression in shake flasks as described in Example 14, purified according to the protocol for purification of KARI enzymes as described in Example 14, and NAD(P)H depletion at 340 nm was measured again. […] The KM values of variants Ec_llvC^2H10-his6 and Ec_llvC^6E6-his6 were measured and the catalytic efficiencies were calculated. […]

NC(=O)C1=CN([C@@H]2O[C@H](COP(=O)(O)OP(=O)(O)OC[C@H]3O[C@@H](n4cnc5c(N)ncnc54)[C@H](O)[C@@H]3O)[C@@H](O)[C@H]2O)C=CC1 [NADH, nicotinamide adenine dinucleotide]
kcat/KM (Example 15, expressed in E. coli BL21(DE3), purified): 74,045 M^−1 * s^−1 | activity (in terms of kcat/KM) on NADH compared to wild-type activity on NADPH (best variant, relative to wild-type with NADPH): 85%
